Assay: Loss of active agent after storage for 2 months at 45° C. (microcapsule suspension vs control aqueous solution)
Format: physicochemical
Conditions: control aqueous solution of the active agent, same weight concentration
Procedure: (§1) The microcapsule suspension thus obtained is stored for 2 months at a temperature of 45° C. After this storage period, the loss of cytochrome C from the suspension and that of a control aqueous solution of cytochrome C having the same weight concentration of 0.25% and which has been stored under the same conditions, are measured.
as §1, with “chlorophylline” for “cytochrome C”, “0.1%,” for “0.25%”
as §1, with “ascorbic acid” for “cytochrome C”, “5% and also a pH of 6,” for “0.25%”

Row | Compound | Loss of active agent after storage for 2 months at 45° C., non-encapsulated control
1 | O=C1O[C@H]([C@@H](O)CO)C(O)=C1O [ascorbic acid] | 40%
2 | chlorophylline | 60%
3 | cytochrome C | 60%

Reference: patent US6531160B2, “Microcapsules with an aqueous core containing at least one water-soluble cosmetic or dermatological active principle and cosmetic or dermatological compositions containing them” (L′Oreal, priority 2000, dated 2003)
